According to PMC4886532, “A highly soluble, non-phototoxic, non-fluorescent blebbistatin derivative” (Scientific Reports, 2016):
Values after ≈ are worked out from the molar mass of the structure shown. Read-outs that look alike come from different tables or passages of the source.

Legend:
myosin II = conditions: no reference given; cited from earlier work
[1] = target: T1, Dictyostelium discoideum myosin II motor domain (DdMD) (Dictyostelium discoideum, UniProt P08799); test: biochemical; conditions: for IC50: 20 °C
T1 construct: Dictyostelium discoideum myosin II motor domain (DdMD)
T1 sequence (P08799 86-759 limits assumed): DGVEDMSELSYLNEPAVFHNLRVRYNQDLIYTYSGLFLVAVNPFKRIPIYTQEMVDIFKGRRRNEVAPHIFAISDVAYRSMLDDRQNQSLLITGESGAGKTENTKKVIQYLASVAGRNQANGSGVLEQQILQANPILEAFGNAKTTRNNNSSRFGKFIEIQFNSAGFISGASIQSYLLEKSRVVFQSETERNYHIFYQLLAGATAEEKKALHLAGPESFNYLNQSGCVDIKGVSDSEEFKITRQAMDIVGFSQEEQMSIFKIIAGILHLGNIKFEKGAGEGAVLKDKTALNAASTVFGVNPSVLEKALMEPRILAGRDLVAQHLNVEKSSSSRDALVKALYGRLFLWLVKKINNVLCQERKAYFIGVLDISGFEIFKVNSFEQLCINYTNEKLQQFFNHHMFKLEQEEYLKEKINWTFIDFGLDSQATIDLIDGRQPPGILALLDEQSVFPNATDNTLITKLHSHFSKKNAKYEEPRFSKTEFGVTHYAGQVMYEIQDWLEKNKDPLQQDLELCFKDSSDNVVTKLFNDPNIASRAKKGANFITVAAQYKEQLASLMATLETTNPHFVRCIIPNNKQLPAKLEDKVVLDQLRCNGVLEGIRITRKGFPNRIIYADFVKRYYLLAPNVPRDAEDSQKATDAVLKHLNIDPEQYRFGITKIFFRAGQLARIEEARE
Procedure: (§1) Myosin and actin together with the indicated concentration of the inhibitor were pre-incubated for 5 minutes at room temperature and the measurements were initiated with 1 mM ATP. Data were corrected for background ATPase activity of actin. G-actin was prepared accordingly from rabbit skeletal muscle[24] and polymerized by 2 mM MgCl2 for 1 hour at room temperature. Measurements were performed in low salt buffer containing 5 mM HEPES, 2 mM MgCl2, 0.1 mM EGTA and 2 mM DTT at pH 7.2 or assay buffer containing 20 mM HEPES, 40 mM NaCl, 4 mM MgCl2 at pH 7.3 for basal ATPase activity measurements with DdMD.

M2 cells = test: Inhibition of blebbing (blebbing index) of M2 cells; format: cell-based, human
Procedure: Next, we compared the non-muscle myosin II inhibition by para-aminoblebbistatin, para-nitroblebbistatin and blebbistatin in human melanoma (M2) and HeLa cells. As blebbistatin acquired its name from its ability to block blebbing of M2 cells, we compared blebbing indices[17] of M2 cells in time, incubated in the three different myosin II inhibitors at different concentrations (Fig. 3c–e). Even 5 μM concentrations of the myosin II inhibitors achieved significant decrease in the blebbing indices of the cells within an hour, whereas higher concentrations of the inhibitors completely stopped blebbing of the cells within >40–60 minutes (10 μM) or >20 minutes (25 and 50 μM).
For blebbing index determination, M2 cells were incubated for 30 minutes in PBS in every case prior to the addition of inhibitors, in order to initiate extensive blebbing. Blebbing of the cells was monitored before as well as after inhibitor addition to the cells. DMSO concentration was 0.1 vol/vol% in all experiments. Blebbing index was calculated by summing the initiated blebs in a 5-minute interval (starting at the indicated time points) on a given standard area[17] (whole cells with similar size, diameter = 12 ± 1 μm) and normalizing it to the blebbing index prior to inhibitor treatment.

zebrafish heart muscle = test: Heart beating and amplitude of heart muscle contraction; format: in vivo, zebrafish (Danio rerio); conditions: 20 μM, 6 dpf
Procedure: (§2) Since the myosin II inhibitors decrease the ATPase activity of SkS1 in vitro, we tested their inhibition on zebrafish skeletal muscle in vivo. We investigated the fast escape response (C-start) reflex of 6 dpf fish evoked by standardized tapping stimuli (Video 1). […] The velocity of the rotating heads of the embryos were quantified (maximal angular velocity) in the absence and in the presence of increasing concentrations of the myosin II inhibitors (2, 5, 10, 20 μM), monitored for 4 hours. The half maximal effective concentration (EC50) values for the inhibition of the maximal angular velocity by the myosin II inhibitors are below 2 μM since even at 2 μM the inhibitory effects were >90% for all inhibitors. We experienced that the inhibitory effect of para-aminoblebbistatin is exerted much slower than that of blebbistatin and para-nitroblebbistatin, probably due to its slower uptake (half inhibitions at […], respectively) (Supplementary Figure 1). To further evaluate the specificity of blebbistatin and its derivatives on different myosin II isoforms, we examined the effect of the inhibitors on 6 dpf (days post fertilization) zebrafish heart muscle in vivo. We monitored heart beating and the amplitude of heart muscle contraction before and after the addition of 20 μM of the inhibitors to the specimens.
(§3) The tapping force was standardized. […] For the cytotoxicity assay, zebrafish embryos were incubated in E3 medium containing 0 μM (Control), 5 μM, 10 μM or 20 μM of para-aminoblebbistatin, para-nitroblebbistatin or blebbistatin in 0.1 vol/vol% final concentration of DMSO and monitored for 70 hours.

[2] = Solubility assays in assay buffer (supernatant concentration after centrifugation); conditions: room temperature
Procedure: 50 μM of the inhibitors were dissolved in assay buffer (see Experimental Procedures) containing 0.1 or 1 vol/vol% DMSO, centrifuged at the indicated times and the concentration of the supernatants were determined at each time point (Fig. 2a,b).
The DMSO content was 1%. […] The experiments were repeated three times.

[3] = target: T2, rabbit skeletal muscle myosin S1 (SkS1) (Oryctolagus cuniculus, UniProt Q28641); test: Steady state basal ATPase, SkS1; format: biochemical; conditions: 25 °C
T2 construct: SkS1 (rabbit skeletal S1 fragment); from tissue; host or cells: rabbit skeletal muscle

[4] = tested on: HeLa Kyoto H2B-mCherry eGFP-α-tubulin cells; test: Cell growth assay (cell number, cytokinesis)
Procedure: Cells incubated in different concentrations of the inhibitors were counted on each day for three days.

zebrafish embryo = tested on: zebrafish embryo; parameters: method as in PMID 24954740; conditions: after 24 hours of incubation; cited from earlier work
HeLa cells = test: Wound healing assay (cell motility); format: cell-based, human; conditions: 20 μM, 24 hours, uncoated glass; 100% = total diameter of the wound; control 30.6 ± 5.4%
Procedure: For wound healing assays, 200 μl of HeLa cells were plated on 35 mm borosilicate glass imaging dishes at 300,000 cells/ml concentrations and incubated for 24 hours. 1 hour prior to wounding, cells were incubated in 20 μM of the different myosin II inhibitors. After one hour, scratches were made with pipette tips in monolayer cultures and the motility of cells for occupying the wound was monitored for 24 hours with a Foculus Digital Camera (IEEE1394). Analysis of cell motility was carried out by ImageJ, by measuring the distance between two lines fitted on the two sides of the approaching cell edges created by the pipette tips.

[5] = tested on: zebrafish skeletal muscle; test: Fast escape response (C-start), maximal angular velocity; format: in vivo, zebrafish (Danio rerio); conditions: 2 μM
Procedure: as §2, §3

[6] = target: T2, rabbit skeletal muscle myosin S1 (SkS1); test: Steady state actin activated ATPase, SkS1; format: biochemical; conditions: 45 μM actin, 25 °C
Procedure: as §1, with “[…]. Myosin” for “Myosin”

[7] = tested on: cldnb:gfp zebrafish embryos; test: Posterior lateral line primordium (pLLp) migration; format: in vivo, zebrafish (Danio rerio); conditions: 20 μM, 24 hours of incubation
Procedure: However, the highly fluorescent, dense precipitates of blebbistatin disturb imaging in the GFP channel of the microscope. […] In this experiment, cldnb:gfp zebrafish embryos were imaged by an epifluorescent microscope after 24 hours of incubation in the presence of 20 μM concentrations of the indicated inhibitors (Fig. 4d) in order to detect the effect of myosin II inhibition on the proliferating leading edge of the posterior lateral line primordium (pLLp)[21] and visualize the effect of the precipitates by epifluorescent microcopy. […] In the case of para-aminoblebbistatin treatment, the GFP signal of the migrating pLLp can be visualized clearly, while the precipitates of the two other inhibitors highly disturbed the imaging.

T2 sequence (Q28641 1-844 limits assumed): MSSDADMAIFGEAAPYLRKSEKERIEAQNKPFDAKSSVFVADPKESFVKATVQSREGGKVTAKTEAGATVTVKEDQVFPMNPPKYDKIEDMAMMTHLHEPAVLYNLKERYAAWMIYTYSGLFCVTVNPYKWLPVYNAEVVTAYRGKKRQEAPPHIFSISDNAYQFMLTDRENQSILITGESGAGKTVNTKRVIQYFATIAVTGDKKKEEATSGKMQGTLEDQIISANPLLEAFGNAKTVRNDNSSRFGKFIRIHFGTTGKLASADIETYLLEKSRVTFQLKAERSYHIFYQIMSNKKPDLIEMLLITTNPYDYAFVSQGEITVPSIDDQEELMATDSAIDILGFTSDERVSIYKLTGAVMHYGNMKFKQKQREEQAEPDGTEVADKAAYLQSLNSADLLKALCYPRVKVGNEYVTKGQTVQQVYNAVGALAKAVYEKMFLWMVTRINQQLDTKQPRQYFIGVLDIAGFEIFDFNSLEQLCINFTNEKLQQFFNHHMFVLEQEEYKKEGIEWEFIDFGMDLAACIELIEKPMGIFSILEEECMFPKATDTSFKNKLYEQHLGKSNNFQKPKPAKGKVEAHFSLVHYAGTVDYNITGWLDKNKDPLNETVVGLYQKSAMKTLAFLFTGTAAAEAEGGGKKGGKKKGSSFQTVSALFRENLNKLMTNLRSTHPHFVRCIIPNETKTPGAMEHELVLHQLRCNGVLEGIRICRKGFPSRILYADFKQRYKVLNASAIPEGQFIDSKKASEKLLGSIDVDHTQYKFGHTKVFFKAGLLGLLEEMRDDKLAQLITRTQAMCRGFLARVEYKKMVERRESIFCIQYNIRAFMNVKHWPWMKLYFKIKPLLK
T2 sequence (P02602 whole entry partner, the tested form may be a part): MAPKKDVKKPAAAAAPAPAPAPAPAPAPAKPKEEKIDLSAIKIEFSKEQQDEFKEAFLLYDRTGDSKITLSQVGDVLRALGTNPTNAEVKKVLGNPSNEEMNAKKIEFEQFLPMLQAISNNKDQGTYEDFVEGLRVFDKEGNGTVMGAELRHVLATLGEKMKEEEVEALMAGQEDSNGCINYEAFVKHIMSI

Row | Structure (SMILES) | IC50 (myosin II) | Maximal inhibition of actin activated ATPase of DdMD [1] | Maximal inhibition of basal ATPase of DdMD [1] | IC50 ([1]; 15 μM actin, read-out: IC50 actin activated ATPase activity of DdMD) | IC50 ([1]; read-out: IC50 basal ATPase of DdMD) | Time constant τ of inhibition of blebbing (M2 cells; 5 μM) | Time constant τ of inhibition of blebbing (M2 cells; 10 μM) | Time constant τ of inhibition of blebbing (M2 cells; 25 μM) | Time within which amplitude of contraction and blood circulation dropped drastically (zebrafish heart muscle) | Solubility ([2]; 0.1 vol/vol% DMSO in assay buffer) | Solubility ([2]; 1 vol/vol% DMSO in assay buffer) | IC50 [3] | Fold weaker IC50 than blebbistatin's (cell proliferation) ([4]; day 3) | IC50 ([4]; read-out: IC50 of the inhibition of cell proliferation, cell number at day 3) | Toxicity in live zebrafish embryo tests (zebrafish embryo) | Relative migration of HeLa cells (HeLa cells) | Half inhibition time of maximal angular velocity [5] | IC50 [6] | Effect on pLLp migration [7]
1 | Cc1cc2c(cc1[N+](=O)[O-])N=C1N(c3ccccc3)CCC1(O)C2=O (stereo not shown) [nitroblebbistatin] | 27.5 µM |  |  |  |  |  |  |  |  |  |  |  |  |  |  |  |  |  | 
2 | Cc1ccc2c(c1)C(=O)[C@]1(O)CCN(c3ccc([N+](=O)[O-])cc3)C1=N2 [para-nitroblebbistatin] |  | ~ 100% | ~ 100% | 3.4 ± 0.3 µM | 5.3 ± 1.6 µM | 21.9 ± 4.6 min | 11.7 ± 0.5 min | 5.9 ± 0.2 min | within the first hour | 3.3 ± 0.1 µM (≈ 1.11 µg/mL) | 3.6 ± 0.2 µM (≈ 1.21 µg/mL) | 0.3 ± 0.04 µM | 2–3 times | 14.7 ± 4.2 µM | negligible | 53.2 ± 17.6% | 1.3 h | 0.1 ± 0.004 µM | halted pLLp migration
